These results are taken from patent US4451485A, “Treatment of cardio-vascular diseases with 3-(2,2,2-trimethylhydrazinium) propionate dihydrate” (Institu Organicheskogo Sinteza Akademii Nauk Latviiskoi SSR, priority 1981, dated 1984).

Series [1] can be described thus: Variation of arrhythmogenic and lethal doses of CaCl2 in mice. Type of series: in vivo, white mice. The following applies: for Effect on arrhythmogenic and lethal doses of calcium chloride: single intraperitoneal administration. The procedure: Thus, the effect of the preparation according to the present invention has been studied relative to the variation of arrhythmogenic and lethal doses of calcium chloride. An experiment was carried out on white mice of both sexes weighing 19-28 g which were narcotized by urethane and an ECG was remetered in transthoracic lead. A 2% solution of calcium chloride was administered to the test animals into the tail vein at a constant rate (0.1 ml for 15 seconds). The average dose of calcium chloride causing the appearance of arrhythmia and heart arrest was determined. In the test groups, the studied compounds were administered 45, 60, 120, 180 and 240 minutes before the beginning of administration of calcium chloride (Table 1).
Variation of arrthythmogenic and lethal doses of CaCl2
with time after administration of the studied
pharmaceutical compositions in experiments on mice.

The next series in a line: in vivo. The following applies: mouse, in vivo; for LD50: white mice, intravenous (Table 2). More on the design: species or system white mice.
Series [2] in a line: Threshold of electric fibrillation of auricles and ventricles in cats. The following applies: for ED50: Felis catus, read-out: ED50, electric irritation of cat's heart; for Effect on fibrillation threshold relative to the composition of the invention: novocainamide 40-55 mg/kg, quinidine and lidocain lower doses. Type of series: in vivo. As to the method: Furthermore, the preparation according to the present invention was tested for specific antiarrhythmic and antianginal effects. […] The effect of the novel pharmaceutical composition according to the present invention was studied on cats weighing 2.9-3.6 kg. The preparation was used as a 10% aqueous solution containing 3-(2,2,2-trimethylhydrazinium)propionate for the determination of the threshold value of electric fibrillation of auricles and ventricles. Under artificial respiration after opening of the thorax and pericardium, needle-like electrodes were applied to the right auricula and apex of the left ventricle. The irritation was effected by square pulses of 1 m.s., 15 st/s.
(§1) For the comparison of preparations, as the criterion of the range of therapeutic effect, there was used the ratio of the half-lethal dose to the half-effective dose (LD50 /ED50) which was referred to as the antiarrhythmic index. […] The comparative study of the antiarrhythmic activity of pharmaceutical preparations using an acotine model of arrhythmia was effected in experiments on white rats weighing 190-240 g. The test preparations were administered intraperitoneally 10-40 minutes before administration of aconitine.

A short description of series [3]: Aconitine model of arrhythmia in white rats. The series is classed as in vivo. The following applies: for ED50: Rattus norvegicus, ip, read-out: ED50, aconitine arrhythmia in rats; for Antiarrhythmic index LD50/ED50, aconitine arrhythmia in rats: rat, in vivo. As to the method: as §1
Series [4] can be described thus: Strophanthin arrhythmia in guinea pigs (450 μg/kg). The following applies: for ED50: Cavia porcellus, read-out: ED50, Strophanthin arrhythmia in guinea pigs. Type of series: in vivo. As to the method:
As the third model of arrhythmia, there was used strophanthin arrhythmia in guinea pigs. […] Against the background of arrhythmia the test preparations were administered intravenously.

Series [5] can be described thus: Coronary circulation and hemodynamics in narcotized cats. The series is classed as in vivo. The procedure:
In acute experiments on narcotized cats with a mass of from 2.9 to 4.1 kg under artificial respiration, arterial pressure was recorded in the common carotide artery, central venous pressure in the right auricle, volume rate of blood flow in the ascending aortic arch and volume rate of the coronary blood flow. At the same time, there was recorded the content of oxyhemoglobin in venous coronary blood.

The conditions of series [6]: in the organism; cited from earlier work.
Setting [7] is: 10 mg/kg intraperitoneal, 60 minutes.
Where [8] appears, read: 10 mg/kg intraperitoneal, 120 minutes.
Where [9] appears, read: 30 mg/kg intraperitoneal, 60 minutes.
The mark [10] stands for this setting: 30 mg/kg intraperitoneal, 120 minutes.
The mark [11] stands for this setting: 3 mg/kg intraperitoneal, 45 minutes.
[12] abbreviates: 3 mg/kg intraperitoneal, 60 minutes.
Setting [13] is: 3 mg/kg intraperitoneal, 120 minutes.
[14] abbreviates: 10 mg/kg intraperitoneal, 180 minutes.

What is called LD50 is the dose expected to kill half of the subjects tested. A low value points to a more toxic substance. In general, ED50 refers to the midpoint of the dose-response relation. For `CCN(CC)CCNC(=O)c1ccc(N)cc1` [Novocainamide], the “Arrhythmogenic dose of CaCl2” value in series [1] (setting [7]) came out at 114.16 mg/kg; in series [1] (setting [8]) it was 86.85 mg/kg; in series [1] (setting [9]) it was 125.16 mg/kg; in series [1] (setting [10]) it was 93.16 mg/kg. For the same compound, the “Lethal dose of CaCl2” value was determined as 120.8 mg/kg in series [1] (setting [7]), 104.5 mg/kg in series [1] (setting [8]), 143 mg/kg in series [1] (setting [9]) and 114.9 mg/kg in series [1] (setting [10]). The “Effect on arrhythmogenic and lethal doses of calcium chloride” value in series [1] is listed as “more pronounced increase of the arrhythmogenic dose of calcium chloride”. This compound had an LD50 in “in vivo” of 112 mg/kg. The ED50 in series [2] (iv) came out at 46 ± 6.3 mg/kg; in series [3], 45 ± 5 mg/kg; in series [4] (intravenous), 55 ± 7.3 mg/kg. In addition, the “Antiarrhythmic index LD50/ED50, electric irritation of cat's heart” value was determined as 2 in series [2] (intravenous) and 2.3 in series [2] (intravenous, listed as novocainamide). Moreover, the “Effect on fibrillation threshold relative to the composition of the invention” value in series [2] was “the same effect”. The “Antiarrhythmic index LD50/ED50, aconitine arrhythmia in rats” value in series [3] was determined as 2.5. Besides, in series [4] (intravenous), the “Duration for which Strophanthin-induced arrhythmia is cut short / ECG improved” value was in the range of 5 to 20 min.
For `CCN(CC)CC(=O)Nc1c(C)cccc1C` [Lidocain], the median effective dose (ED50) in series [4] (iv) is 3.8 ± 0.5 mg/kg. For the same compound, in series [4] (intravenous), the “Duration for which Strophanthin-induced arrhythmia is cut short / ECG improved” value was 0.5 to 3 min and the “Number of animals (experiments) with effect on arrhythmia” value was 4 out of 7.
Take `C=C[C@H]1C[N@@]2CC[C@H]1C[C@@H]2[C@@H](O)c1ccnc2ccc(OC)cc12` [Quinidine]: the “Arrhythmogenic dose of CaCl2” value stood at 128.9 mg/kg in series [1] (setting [11]); 104.5 mg/kg in series [1] (setting [12]); 87.47 mg/kg in series [1] (setting [13]); 120.84 mg/kg in series [1] (10 mg/kg intraperitoneal, 45 minutes before CaCl2, control 85); 119.48 mg/kg in series [1] (setting [7]); 94.5 mg/kg in series [1] (setting [8]). Also, the “Arrhythmogenic dose of CaCl2” value in series [1] (setting [14]) worked out at 88.7 mg/kg. Also, the “Lethal dose of CaCl2” value in series [1] (setting [11]) is given as 147.7 mg/kg; in series [1] (setting [12]), 117.8 mg/kg; in series [1] (setting [13]), 103.65 mg/kg; in series [1] (10 mg/kg intraperitoneal, 45 minutes before CaCl2, control 100.9) it was 138.54 mg/kg; in series [1] (setting [7]) it was 126.2 mg/kg; in series [1] (setting [8]), 117.6 mg/kg. The “Lethal dose of CaCl2” value in series [1] (setting [14]) is listed as 115.8 mg/kg. Further, the “Effect on arrhythmogenic and lethal doses of calcium chloride” value in series [1] was “more pronounced increase of the arrhythmogenic dose of calcium chloride”. Besides, in “in vivo”, the “Toxicity relative to the composition of the invention” value is “substantially higher toxicity”. Moreover, in “in vivo”, the LD50 turned out to be 68 mg/kg. In addition, the ED50 in series [2] (intravenous) is 2.6 ± 0.5 mg/kg; in series [3], 4.3 ± 0.6 mg/kg; in series [4] (intravenous) it was 2.3 ± 0.4 mg/kg. Also, in series [2] (intravenous), the “Antiarrhythmic index LD50/ED50, electric irritation of cat's heart” value is on record as 26. Also, the “Effect on fibrillation threshold relative to the composition of the invention” value in series [2] was “exerting their effect at lower doses”. In series [3], the “Antiarrhythmic index LD50/ED50, aconitine arrhythmia in rats” value worked out at 16. Further, the “Antiarrhythmic index LD50/ED50, Strophanthin arrhythmia in guinea pigs” value in series [4] (guinea pig, in vivo) was found to be 30. Moreover, the “Duration for which Strophanthin-induced arrhythmia is cut short / ECG improved” value in series [4] (intravenous) lay in the range of 0.5 to 3 min. For the same compound, the “Number of animals (experiments) with effect on arrhythmia” value in series [4] (intravenous) is given as 4 out of 8.
For the compound `CCOC(=O)COc1ccc2c(C)c(CCN(CC)CC)c(=O)oc2c1` [Carbocromene, reference compound], in series [5] (0.5 mg/kg), the Increase duration stood at 35 min and the “Volume rate, percent of increase” value is reported as 30%. Further, in series [5] (2 mg/kg), the “Change of heart output” value is “+5 - 15%”; the Increase duration was 50 min; the “Volume rate, percent of increase” value is on record as 45%. Further, in series [5] (5 mg/kg), the “Change of arterial pressure” value is 0 - +7%, the “Change of central venous pressure” value is on record as 5 - 10%, the “Change of heart output” value is recorded as “+5 - 15%” and the Increase duration amounted to 70 min. The “Volume rate, percent of increase” value in series [5] (5 mg/kg) was found to be 55%. In series [5] (in vivo), the “Saturation of the venous blood of coronary sinus with oxygen” value was “lastingly increase saturation of the venous blood of coronary sinus with oxygen”.
For the compound `C[N+](C)(C)CCCC(=O)[O-]` [γ-butyrobetain], the Metabolism into carnitine result in series [6] was “rapidly metabolized”.
